Tests used:
ERα, ERβ, GR, or MR = experiment: Cross-reactivity with other nuclear hormone receptors (summary); format: cell-based, Rat; settings: agonist and antagonist mode
Procedure: In order to determine whether SARM compounds of Formulae I-XIV as described hereinaffected other nuclear hormone receptor signaling, the ability of a compound represented by Formula VIII to stimulate (agonist) or inhibit (antagonist) ERα-, ERβ-, GR-, PR-, or MR-mediated transcriptional activation, was analyzed.
Rat GR, MR, PR, ER-α and ER-β were individually cloned into a pCR3.1 vector backbone. Sequencing was performed to verify the absence of any mutations. HEK-293 cells were plated at 90,000 cells per well of a 24 well plate in Dulbecco's Minimal Essential Media supplemented with 5% charcoal-stripped FBS. The cells were transfected using Lipofectamine (Invitrogen, Carlsbad, Calif.) with 0.25 μg GRE-LUC for GR, MR and PR and ERE-LUC for ER-α and ER-β, 0.5 ng CMV-LUC (renilla luciferase) and 12.5-25 ng of the respective expression vector for each receptor. […] Luciferase assays were performed 48 h after transfection. Transcriptional activation values are represented as firefly luciferase normalized to renilla luciferase.

[1] = test system: MDA-MB-231-AR triple negative breast cancer cells; experiment: MDA-MB-231-AR xenograft in nude mice; format: in vivo; settings: for body weight / tumor weights: all doses
Procedure: MDA-MB-231-AR triple negative breast cancer cells (2 million cells/mouse; MDA-MB-231 cells stably transfected with AR using lentivirus) were mixed with matrigel (1:1) and injected subcutaneously into the flanks of intact female nude mice (n=5/group). When the tumors reached 150-200 mm^3, the animals were separated into two groups, one receiving vehicle and the other receiving 30 mg/kg Formula VIII orally. Tumor volume was measured thrice weekly and % tumor growth inhibition (TGI) was calculated. At the end of 35 days of treatment, the animals were sacrificed, tumors excised, weighed, and collected for various analyses. Blood was collected and serum separated for drug concentration measurement.

MDA-MB-231-AR cells = experiment: Morphology of MDA-MB-231 cells stably transfected with AR; format: cell-based; settings: 3 days
Procedure: MDA-MB-231 cells were stably transfected with AR using lentivirus. […] Live cells were visualized using a light-microscope and photographed. The cells were imaged at the same magnification and under the same microscopic conditions.
MDA-MB-231 cells were stably transfected with AR using lentivirus and were treated with vehicle or AR agonists at the indicated concentrations. At the end of 3 days of incubation, the cells were imaged under a microscope (40×).

[2] = test system: MDA-MB-231 breast cancer cells stably transfected with AR; experiment: Proliferation (Coulter counter) of MDA-MB-231 cells stably transfected with AR; format: cell-based; settings: 6 days
Procedure: MDA-MB-231 cells stably transfected with AR using lentivirus were treated with the indicated ligands for 6 days and the number of cells counted using Coulter counter.

AR = target: T1, AR (Homo sapiens, UniProt P10275); experiment: AR transactivation (GRE-LUC) in HEK-293 or MDA-MB-231 cells; format: cell-based; parameters: expressed in transfected cells; settings: cells transfected with AR
T1 sequence (P10275 1-920): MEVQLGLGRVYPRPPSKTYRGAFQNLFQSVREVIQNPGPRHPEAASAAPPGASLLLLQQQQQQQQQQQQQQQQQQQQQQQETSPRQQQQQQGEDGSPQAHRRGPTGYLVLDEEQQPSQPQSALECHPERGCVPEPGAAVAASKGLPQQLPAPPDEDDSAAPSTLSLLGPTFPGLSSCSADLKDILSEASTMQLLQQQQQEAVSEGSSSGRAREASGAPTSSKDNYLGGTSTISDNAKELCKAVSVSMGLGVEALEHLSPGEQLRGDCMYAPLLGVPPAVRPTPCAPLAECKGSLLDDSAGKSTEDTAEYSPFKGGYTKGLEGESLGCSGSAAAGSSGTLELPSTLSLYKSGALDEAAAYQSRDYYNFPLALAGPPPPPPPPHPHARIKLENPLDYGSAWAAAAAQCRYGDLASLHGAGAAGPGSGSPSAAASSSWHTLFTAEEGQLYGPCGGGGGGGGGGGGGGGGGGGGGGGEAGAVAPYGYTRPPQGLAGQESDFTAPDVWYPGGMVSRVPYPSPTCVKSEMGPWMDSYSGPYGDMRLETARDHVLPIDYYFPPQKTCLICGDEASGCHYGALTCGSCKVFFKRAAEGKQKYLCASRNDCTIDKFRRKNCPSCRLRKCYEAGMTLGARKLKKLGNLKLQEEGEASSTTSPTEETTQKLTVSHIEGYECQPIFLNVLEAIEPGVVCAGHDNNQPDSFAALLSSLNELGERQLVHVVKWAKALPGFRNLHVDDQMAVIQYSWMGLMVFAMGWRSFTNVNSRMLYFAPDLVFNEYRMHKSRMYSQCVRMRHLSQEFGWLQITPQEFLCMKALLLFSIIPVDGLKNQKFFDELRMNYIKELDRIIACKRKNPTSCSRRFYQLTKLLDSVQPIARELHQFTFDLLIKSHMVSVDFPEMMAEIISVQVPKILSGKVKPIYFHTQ
Procedure: Though AR transactivation assay was performed in HEK-293 cells, the ability of ligands to function as agonists or antagonists depends on cellular microenvironment. […] The cells were treated 24 h after transfection and luciferase assay performed 48 h after transfection.

GAR15-13 PDX = GAR15-13 PDX model of CDKi resistance in NSG mice; format: in vivo; settings: palbociclib-resistant patient tumor
Source text: Data were presented as mean values±s.e.m. […] Data represented the mean±s.e.m. of four replicate cell culture wells per condition. […] P values are indicated by gray asterisks, where ****P<0.0001 for all highlighted comparisons.
Tissue samples from an ER-positive, PR-negative, and HER2-negative (ER^+, PR^−, HER2^−) patient that progressed on (i.e., was resistant to) palbociclib were implanted into animal (NSG mice) models and grown as a patient-derived xenograft (PDX). […] This human tumor model also had amplification of the cyclin D1 (CCND1^Amp) gene which has been implicated as a driver of therapeutic resistance to CDKi. […] This is also observed in other models tested in vitro including a palbociclib resistant MCF-7 (MCF7 palbo^R) line (FIG. 44B).

SMILES: C[C@](O)(COc1ccc(C#N)cc1)C(=O)Nc1ccc(C#N)c(Cl)c1 [Formula VIII, (S)—N-(3-chloro-4-cyanophenyl)-3-(4-cyanophenoxy)-2-hydroxy-2-methylpropanamide]
- receptor-mediated transactivation of ERα, ERβ, GR, or MR (ERα, ERβ, GR, or MR): do not stimulate or inhibit
- uterus weight ([1]; 30 mg/kg orally): increased
- reduction of tumor weights ([1]; 30 mg/kg orally, 35 days): more than 50%
- toxicity / body weight ([1]; 30 mg/kg orally, 35 days): without any associated toxicity or changes in body weight
- tumor growth inhibition (TGI) ([1]; 30 mg/kg orally, 35 days): ~75%
- body weight [1]: increase of body weight
- tumor weights [1]: reduced
- TGI ([1]; all doses tried: 5, 10 mg per kg): ~85%
- morphology of MDA-MB-231-AR cells (more anchorage-dependent phenotype) (MDA-MB-231-AR cells): altered the morphology
- proliferation of MDA-MB-231 cells stably transfected with AR [2]: inhibited the proliferation
- AR function (agonist/antagonist) in transactivation (AR): agonists

SMILES: C[C@](O)(COc1ccc(C#N)cc1)C(=O)Nc1ccc(C#N)c(C(F)(F)F)c1 [Formula IX, (S)—N-(4-Cyano-3-(trifluoromethyl)phenyl)-3-(4-cyanophenoxy)-2-hydroxy-2-methylpropanamide]
- GAR15-13 PDX tumor growth (GAR15-13 PDX): responsive
- receptor-mediated transactivation of ERα, ERβ, GR, or MR (ERα, ERβ, GR, or MR): do not stimulate or inhibit
- body weight [1]: increase of body weight
- tumor weights [1]: reduced
- TGI ([1]; all doses tried: 5, 10, 30 mg per kg): ~85%
- morphology of MDA-MB-231-AR cells (more anchorage-dependent phenotype) (MDA-MB-231-AR cells): altered the morphology
- proliferation of MDA-MB-231 cells stably transfected with AR [2]: inhibited the proliferation
- AR function (agonist/antagonist) in transactivation (AR): agonists
